What was measured:
Oral LD50 in mice = conditions: mouse, in vivo, female Swiss CF mice, 20 g, 14 days observation, read-out: approximate oral LD50
Protocol: (§1) The compounds were suspended in a 3% strength solution of gum arabic so as to supply, in a volume of 2 ml for the rats, the equivalent of 50, 100, 200, 400 and 800 mg/kg, and, in a volume of 1 ml for the mice, 100, 200, 400, 800 and 1,600 mg/kg and, for 1573 and 1579, 3,200 mg/kg.
(§2) Gavage was performed by means of a metal tube, on batches of 5 animals for each series.
(§3) The animals were observed daily for 14 days.

[1] = test system: foreign-body (sponge) granuloma in rats; assay: Experimental granuloma induced by foreign body, histological study; assay type: in vivo, Wistar rats; conditions: both doses (50 and 100 mg/kg) oral, 8 days; Table XI
Protocol: This test consists in studying the subacute cellular phase which is developed in the 8 days which follow the implantation of a foreign body, a sponge of non-resorbable plastic, in the dorsal subcutaneous connective tissue in rats.
The granulomas formed are removed 8 days after the implantation; a histological study is carried out after fixing the tissue and staining sections with hematein/ eosin. The observation is more especially concerned with the cell population of the primary phase of the formation of the granulation tissue: the reticulohistocytic cells, lymphocytes and more especially the macrophages.
The animals used are Wistar rats weighing 120-140 g and of the same origin, maintained under the same conditions of housing throughout the treatment (8 days).
The compounds of the invention are administered orally, in a gum suspension, in the morning in a fasted state, using an oesophageal tube.
After 8 days of treatment, the rats are sacrificed by decapitation and the granulomas removed and prepared for the purpose of histological examination.
The experiment conditions are as follows:
The animals are distributed in batches of 10;
Each test product is administered at 2 doses, of 50 and 100 mg, respectively, to 2 batches of 10 animals;
Ketoprofen is used by way of reference product at the same 2 doses and under the same conditions; and
A batch of 10 control animals receives no treatment.
In this experiment, on the one hand a histological study of the granulomas is performed by sampling on day 8 (results recorded in Table XIa), and on the other hand a study of the weight of the granulomas was performed 10 days after the implantation (results recorded in Table XIb).

thromboxane synthetase [2] = assay: TXB2 production in human platelet suspension (thromboxane synthetase); assay type: cell-based; conditions: human platelets, arachidonic acid 5 μg/ml, 37° C., read-out: IC50, inhibition of the production of TXB2
Protocol: The platelets are incubated with arachidonic acid (5 μg/ml) in the presence of increasing doses of test products (10^-6l M to 5×10^-5 M). Platelets stimulated by arachidonic acid (AA) manufacture a large amount of thromboxane A2 (TXA2), which can be measured radioimmunologically in the form of a stable metabolite TXB2.
The assay of the amount of TXB2 in the medium is performed after a 1- to 15- minute incubation at 37° C., the measurements being made in comparison with a control suspension which has not been incubated with the test products.
Results: These are expressed as IC50, that is to say as the concentration of the test product which permits 50% inhibition of the production of TXB2.

5-lipoxygenase = assay: Production of LTB4 and 5-HETE by human leukocytes incubated with arachidonic acid; assay type: cell-based; conditions: ionophore A 23187 5 μM, arachidonic acid 10 μg/ml
Protocol: Human polymorphonuclear leukocytes suspended with arachidonic acid and stimulated by calcium ionophore produce leukotrienes B4 (LTB4).
The test consists in incubating fresh human leukocytes with arachidonic acid at a dose of 10 μg/ml to which a tracer dose of tritium-labelled arachidonic acid has been added. The leukocytes are stimulated with calcium ionophore A 23187 (Calbiochem, 5 μM) and the amount of 5-hydroxyeicosatetraenoic acid (5-HETE) and LTB4 produced is then assayed by HPLC.
5-HETE is the metabolite produced from arachidonic acid by 5-lipoxygenase, and from which LTB4 is produced by the action of an isomerase.
The results are expressed as an integration of the surface of the peak obtained in HPLC by comparison with that obtained with control leukocytes which have not been incubated with the test products.
The results in brackets are expressed as a percentage inhibition of the production of 5-HETE and LTB4.

[3] = test system: biosynthesis of leukotrienes C4 (LTC4), human polymorphonuclear leukocytes; assay: LTC4 production in human polymorphonuclear leukocytes; assay type: cell-based; conditions: Leukocyte, 0.25 h, ionophore A 23187 5 μM, 15 min, 37° C., read-out: IC50, inhibition of the production of LTC4
Protocol: Human polymorphonuclear Leukocytes are stimulated by calcium ionophore A 23187 (Calbiochem, 5 μM), in the presence or absence of the test products.
After 15 minutes' incubation at 37° C., assay of the leukotrienes C4 (LTC4) is performed radioimmunologically.
The results are expressed as IC50, the concentration producing 50% inhibition of the production of LTC4, by comparison with a control suspension which has not been incubated in the presence of the test products.

prostacyclin synthetase = assay: PGI2 production in human glomeruli (renal preparation model); assay type: cell-based; conditions: arachidonic acid 5 ug/ml
Protocol: (§4) Human glomeruli synthesize both thromboxanes, via thromboxane synthetase, and prostaglandins, via prostacyclin synthetase. The experiment consists in stimulating glomerular cells with arachidonic acid (5 ug/ml) and in assaying radioimmunologically the amount of thromboxane B2 (TXB2) and prostacyclin (PGI2) produced in the presence of increasing concentrations of test products (10^-6 M to 5×10^-5 M).
(§5) As for the previous model, the results are expressed as IC50 in comparison with a control suspension.

thromboxane synthetase [4] = assay: TXB2 production in human glomeruli (renal preparation model); assay type: cell-based; conditions: arachidonic acid 5 ug/ml
Protocol: as §4, §5

[5] = test system: rat hind foot carragheenin-induced oedema; assay: Carragheenin-induced oedema test; assay type: in vivo; conditions: 3 h, first experiment, Table X, read-out: percentage inhibition of the inflammation; for change in vivo at 25 mg/kg: 25 mg/kg oral; for change in vivo at 50 mg/kg: 50 mg/kg oral; for change in vivo at 100 mg/kg: 100 mg/kg oral
Oral LD50 in rats = conditions: rat, in vivo, male Wistar rats, 200-400 g, 14 days observation, read-out: approximate oral LD50
Protocol: as §1, §2, §3

[6] = test system: rat hind foot kaolin-induced oedema; assay: Kaolin-induced arthritis test, first experiment (decrease in inflammation, foot volume); assay type: in vivo; conditions: 1 h before kaolin, Table IX, read-out: percentage decrease in the inflammation; for change in vivo at 25 mg/kg: 25 mg/kg oral; for change in vivo at 50 mg/kg: 50 mg/kg oral; for change in vivo at 100 mg/kg: 100 mg/kg oral
Protocol: The […] of 0.05 ml of a sterile 10% strength suspension of kaolin into the metatarsal flexor sheath of the hind foot of a rat initially induces an oedematous reaction. An inflammatory arthritis then forms.
The early oedematous reaction appears from the first hour, and reaches its maximum between the fourth hour and the sixth hour. This is the manifestation of interest. The assessment of the volume of the foot enables the action of substances on the oedematous reaction to be studied. The measurements are carried out using a Giono and Chevilard plethysmometer.
The test products are administered orally (stomach tube) one hour before the injection of the kaolin.
The results are expressed as a percentage decrease in the inflammation in the treated animals compared with a control series of animals.
The batches are of 10 animals per dose and 10 control animals.
The figures shown represent the mean of 10 animals.

[7] = test system: pain threshold of brewer's yeast inflamed rat hind foot; assay: Randall and Sellitto's test (analgesic activity); assay type: in vivo; conditions: first experiment, Table XII, read-out: percentage increase in the mean pain threshold; for change in vivo at 25 mg/kg: 25 mg/kg oral; for change in vivo at 50 mg/kg: 50 mg/kg oral; for change in vivo at 100 mg/kg: 100 mg/kg oral
Summary of the method: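 Rats had 0.1 ml 20% brewer's yeast suspension injected under the hind-foot plantar aponeurosis; compounds dosed orally by stomach tube 1 h before yeast. Pain threshold was the pressure eliciting foot withdrawal, read at the 4–6 h plateau; result is % increase in mean threshold versus untreated controls, 10 rats per group.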

Row | IC50 (thromboxane synthetase [2]) | IC50 [3] | IC50 (prostacyclin synthetase) | IC50 (thromboxane synthetase [4]) | Compound | LD50 at 336 h (Oral LD50 in mice) | histological study of the granuloma [1] | 5-HETE, integration of the surface of the HPLC peak (5-lipoxygenase) | change in vivo at 25 mg/kg [5] | change in vivo at 50 mg/kg [5] | change in vivo at 100 mg/kg [5] | LD50 at 336 h (Oral LD50 in rats) | change in vivo at 25 mg/kg [6] | change in vivo at 50 mg/kg [6] | change in vivo at 100 mg/kg [6] | change in vivo at 25 mg/kg [7] | change in vivo at 50 mg/kg [7] | change in vivo at 100 mg/kg [7]
1 | – | – | – | – | O=C(c1ccccc1)c1ccccc1S(=O)(=O)NCCN1CCOCC1 [Compound 1341] | 250 mg/kg | Inflammatory reaction distinctly attenuated | – | – | – | – | – | – | – | – | – | – | –
2 | 11 µM | 1 µM | > 50 µM | 2 µM | O=C(O)CCCCCCCCCCCNS(=O)(=O)c1ccc(Cl)c(C(=O)c2cccs2)c1 [Compound 1813] | – | – | 181 | – | – | – | – | – | – | – | – | – | –
3 | – | – | – | – | O=C(c1ccccc1)c1cc([N+](=O)[O-])ccc1S(=O)(=O)NCCCN1CCOCC1 [Compound 1361] | > 1600 mg/kg | anti-inflammatory activity is exhibited | – | -15% | -25% | -45% | > 800 mg/kg | -25% | -30% | -48% | 20% | 25% | 45%
4 | – | – | – | – | O=C(O)CCCNS(=O)(=O)c1ccc(Cl)cc1C(=O)c1ccccc1Cl [Compound 1573] | > 3200 mg/kg | the activity is very distinct | – | -17% | -28% | -50% | – | -15% | -30% | -52% | 20% | 35% | 60%

From patent publication US4980349A, “Sulphonamides derived from diarylmethanes, the processes for preparing them and pharmaceutical compositions containing them” (SANOFI, priority 1986, dated 1990)
